From the supplement of paper PMC10307832

Each cell line was assayed with Cn1nnc2c(C(N)=O)ncn2c1=O [Temozolomide] + CC(=O)Nc1cccc(-n2c(=O)n(C3CC3)c(=O)c3c(Nc4ccc(I)cc4F)n(C)c(=O)c(C)c32)c1 [Trametinib] (partner 0.02 µM) (assay: relative viability (nuclei count vs DMSO), 5 days (fraction); higher = more cells survive). Details: first compound 20 µM.
Method in brief: (§1)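 Values are medians from duplicate plates. Each reflects relative viability, defined as the nuclei count of treated wells over that of vehicle wells. Lung cancer cell lines in 1536-well plates were pin-tool dosed one day after seeding with one drug alone or with a fixed anchor-drug dose plus five library-drug doses (not always all listed) in √10 steps, then fixed, stained and imaged at 4× after 5 days.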

Cell Line | relative viability
PC-3 [JPC-3] | 0.433
PC-14 | 0.585
RERF-LC-KJ | 0.826
SK-LU-1 | 0.361
SK-MES-1 | 0.58
SW 1573 | 0.474
UMC-11 | 0.519

The cell lines below were run with C[C@@H](C(=O)N[C@@H](C1CCCCC1)C(=O)N2CCC[C@H]2C(=O)N[C@@H]3[C@@H](CC4=CC=CC=C34)OCC#CC#CCO[C@@H]5CC6=CC=CC=C6[C@@H]5NC(=O)[C@@H]7CCCN7C(=O)[C@H](C8CCCCC8)NC(=O)[C@H](C)NC)NC [AZD5582] + Cc1nc(NC(=O)N2CCC[C@H]2C(N)=O)sc1-c1ccnc(C(C)(C)C(F)(F)F)c1 [Alpelisib] (partner 2 µM) in the same assay as above. Details: first compound 0.001581 µM.
Method in brief: as §1

Cell Line | relative viability
NCI-H2228 | 0.776
NCI-H2347 | 0.901
NCI-H2405 | 0.913
NCI-H3122 | 0.774
PC-3 [JPC-3] | 0.889
PC-14 | 0.834
SK-LU-1 | 0.744
SK-MES-1 | 0.773
SW 1573 | 0.856
UMC-11 | 1.05

Same assay, conditions: first compound 0.005 µM

Cell Line | relative viability
NCI-H2228 | 0.625
NCI-H2347 | 1.05
NCI-H2405 | 1.07
NCI-H3122 | 0.858
PC-3 [JPC-3] | 0.966
PC-14 | 1.03
RERF-LC-KJ | 0.532
SK-LU-1 | 0.554
SK-MES-1 | 0.995
SW 1573 | 0.705
UMC-11 | 1.11

Same assay, conditions: first compound 0.01581 µM

Cell Line | relative viability
NCI-H2228 | 0.924
NCI-H2347 | 0.975
NCI-H3122 | 0.836
PC-3 [JPC-3] | 0.999
PC-14 | 0.927
RERF-LC-KJ | 0.781
SK-LU-1 | 0.95
SK-MES-1 | 0.808
SW 1573 | 0.673
UMC-11 | 0.968

Same assay, conditions: first compound 0.05 µM

Cell Line | relative viability
NCI-H2228 | 0.365
NCI-H2347 | 0.991
NCI-H2405 | 0.933
NCI-H3122 | 0.307
PC-3 [JPC-3] | 0.703
PC-14 | 0.971
RERF-LC-KJ | 0.639
SK-LU-1 | 0.243
SK-MES-1 | 0.947
SW 1573 | 1.01
UMC-11 | 1.08

What follows are cell lines tested with Cn1nnc2c(C(N)=O)ncn2c1=O [Temozolomide] + CCNC(=O)c1noc(-c2cc(C(C)C)c(O)cc2O)c1-c1ccc(CN2CCOCC2)cc1 [Luminespib] (partner 0.01 µM) in the same assay as above. Details: first compound 0.2 µM.
Method in brief: as §1

Cell Line | relative viability
NCI-H2228 | 0.125
NCI-H2347 | 0.417
NCI-H2405 | 0.67
NCI-H3122 | 0.0795
PC-3 [JPC-3] | 0.63
PC-14 | 0.143
RERF-LC-KJ | 1.29
SK-LU-1 | 0.231
SK-MES-1 | 0.939
SW 1573 | 0.295
UMC-11 | 1.05

Same assay, conditions: first compound 0.6325 µM

Cell Line | relative viability
NCI-H2228 | 0.162
NCI-H2347 | 0.414
NCI-H2405 | 0.77
NCI-H3122 | 0.105
PC-3 [JPC-3] | 0.739
PC-14 | 0.151
RERF-LC-KJ | 1.19
SK-LU-1 | 0.195
SK-MES-1 | 0.823
SW 1573 | 0.331
UMC-11 | 1.07

Same assay, conditions: first compound 2 µM

Cell Line | relative viability
NCI-H2228 | 0.104
NCI-H2347 | 0.608
NCI-H2405 | 0.817
NCI-H3122 | 0.125
PC-3 [JPC-3] | 0.776
PC-14 | 0.167
RERF-LC-KJ | 1.32
SK-LU-1 | 0.189
SK-MES-1 | 0.777
SW 1573 | 0.273
UMC-11 | 1.17

Same assay, conditions: first compound 6.325 µM

Cell Line | relative viability
NCI-H2228 | 0.149
NCI-H2347 | 0.488
NCI-H2405 | 0.513
NCI-H3122 | 0.0851
PC-3 [JPC-3] | 0.659
PC-14 | 0.244
RERF-LC-KJ | 1.19
SK-LU-1 | 0.191
SK-MES-1 | 0.831
SW 1573 | 0.206
UMC-11 | 0.971

Same assay, conditions: first compound 20 µM

Cell Line | relative viability
NCI-H2228 | 0.137
NCI-H2347 | 0.322
NCI-H2405 | 0.751
NCI-H3122 | 0.0839
PC-3 [JPC-3] | 0.421
PC-14 | 0.144
RERF-LC-KJ | 1.27
SK-LU-1 | 0.24
SK-MES-1 | 0.772
SW 1573 | 0.28
UMC-11 | 0.66
